In paper PMC6749586, “Design, Synthesis, and Anticancer Effect Studies of Iridium(III) Polypyridyl Complexes against SGC-7901 Cells” (Molecules, 2019):
Where two headings read alike, the source gives them in different places.

What was measured:
HepG2 cells = assay: MTT cytotoxicity assay, HepG2; type: cell-based, human; settings: read-out: IC50 toward HepG2
Description: (§1) The lung carcinoma cell line A549, the cervical cancer cell line HeLa, the esophageal cancer cell line Eca-109, and the human hepatocellular carcinoma cell line BEL-7402 were purchased from the cell bank of the Cell Institute of Sinica Academia Shanghai (Shanghai, China). The gastric adenocarcinoma cell line SGC-7901, the hepatocellular carcinoma cell line HepG2, and the mouse embryonic fibroblast cell line NIH 3T3 were obtained from the Experimental Animal Center of Sun Yat-Sen University (Guangzhou, China). The BEL-7402 and SGC-7901 cell lines were cultured in Roswell Park Memorial Institute Medium (RPMI-1640); and A549, Eca-109, HepG2, and NIH 3T3 cells were grown in Dulbecco’s Modified Eagle’s Medium (DMEM), including 10% fetal bovine serum (FBS), 100 units mL^−1 penicillin/streptomycin mixture, and 2.0 g/L of NaHCO3. Cell passage experiments were performed with trypsin every 2 days to maintain exponential growth. All cells were cultured until they reached logarithmic growth phase, unless specifically noted.
(§2) Cell cytotoxicity following treatment with the iridium(III) complexes was detected by MTT assay. The cells were seeded into 96-well micro-assay culture plates (1 × 10^4 cells per well) and grown overnight in a 5% CO2 incubator at 37 °C. Then, the cell lines were treated with gradient concentrations of the complexes 1–3. After treatment for 48 h, MTT solution (5 mg mL^−1, […]) dissolved in phosphate buffer was added to each well and the cells were further cultured for 4 h. Upon completion of incubation, the solvent was removed and 100 µL/well of buffer containing dimethylformamide (50%) and sodium dodecyl sulfate (20%) was added to dissolve the produced formazan. The absorbance of each well was measured with a microplate reader at a wavelength of 490 nm. The IC50 values were determined from the plots of viability versus concentration used to treat the cells. Three independent experiments were performed to obtain the mean values.

NIH 3T3 cells = assay: MTT cytotoxicity assay, normal NIH 3T3; type: cell-based, mouse; settings: Mus musculus, NIH3T3, 48 h, read-out: IC50 toward NIH 3T3
Description: as §1, §2

A549 cells = assay: MTT cytotoxicity assay, A549; type: cell-based, human; settings: read-out: IC50 toward A549
Description: as §1, §2

SGC-7901 cells [1] = assay: MTT cytotoxicity assay, SGC-7901; type: cell-based, human; settings: read-out: IC50 toward SGC-7901
Description: as §1, §2

HeLa cells = assay: MTT cytotoxicity assay, HeLa; type: cell-based, human; settings: 48 h, read-out: IC50 toward HeLa
Description: as §1, §2

BEL-7402 cells = assay: MTT cytotoxicity assay, BEL-7402; type: cell-based, human; settings: read-out: IC50 toward BEL-7402
Description: as §1, §2

SGC-7901 cells [2] = assay: Mitochondrial membrane potential assay with JC-1; type: cell-based, human; settings: substance alone: 4.0 µM 1, 15.0 µM 2, 15.0 µM 3, CCCP or NAC; 24 h; control 12.03
Procedure: The SGC-7901 cells were seeded into a 12-well plate at a density of 1.5 × 10^5 cells per well and incubated to attach at 37 °C in 5% CO2. Overnight, the cells were treated with complexes 1–3 for 24 h. CCCP was used as a positive control. Then, the cells were incubated with JC-1 for 30 min at room temperature, after which the remaining dye was washed away with PBS. The samples were then observed under the ImageXpress Micro XLS system and flow cytometry was employed to quantify the fluorescence intensity.

Eca-109 cells = assay: MTT cytotoxicity assay, Eca-109; type: cell-based, human; settings: 48 h, read-out: IC50 toward Eca-109
Description: The lung carcinoma cell line A549, the cervical cancer cell line HeLa, the esophageal cancer cell line Eca-109, and the human hepatocellular carcinoma cell line BEL-7402 were purchased from the cell bank of the Cell Institute of Sinica Academia Shanghai (Shanghai, China). The gastric adenocarcinoma cell line SGC-7901, the hepatocellular carcinoma cell line HepG2, and the mouse embryonic fibroblast cell line NIH 3T3 were obtained from the Experimental Animal Center of Sun Yat-Sen University (Guangzhou, China). […] Cell passage experiments were performed with trypsin every 2 days to maintain exponential growth. All cells were cultured until they reached logarithmic growth phase, unless specifically noted. Cell cytotoxicity following treatment with the iridium(III) complexes was detected by MTT assay. The cells were seeded into 96-well micro-assay culture plates (1 × 10^4 cells per well) and grown overnight in a 5% CO2 incubator at 37 °C. Then, the cell lines were treated with gradient concentrations of the complexes 1–3. After treatment for 48 h, MTT solution (5 mg mL^−1, […]) dissolved in phosphate buffer was added to each well and the cells were further cultured for 4 h. […] The absorbance of each well was measured with a microplate reader at a wavelength of 490 nm. The IC50 values were determined from the plots of viability versus concentration used to treat the cells. Three independent experiments were performed to obtain the mean values.

SMILES | IC50 (HepG2 cells; Homo sapiens, HepG2, 48 h) [µM] | IC50 (NIH 3T3 cells) [µM] | IC50 (A549 cells; Homo sapiens, A549, 48 h) [µM] | IC50 (SGC-7901 cells [1]; Homo sapiens, SGC-7901, 48 h) [µM] | IC50 (HeLa cells; Homo sapiens, HeLa) [µM] | IC50 (BEL-7402 cells; Homo sapiens, Bel-7402, 48 h) [µM] | Ratio of red/green JC-1 fluorescence intensity (R) (SGC-7901 cells [2]) | IC50 (HepG2 cells; 48 h) [µM] | IC50 (Eca-109 cells) [µM] | IC50 (A549 cells; 48 h) [µM] | IC50 (SGC-7901 cells [1]; 48 h) [µM] | IC50 (HeLa cells) [µM] | IC50 (BEL-7402 cells; 48 h) [µM]
Nc1c([N+](=O)[O-])c2cccnc2c2ncccc12 [NAP, 5-nitro-6-amino-phenanthroline] | 56 ± 1.9 | 61.9 ± 1.9 | 42.7 ± 2.1 | 90.9 ± 7.4 | 45.8 ± 4 | 21.1 ± 0.8 | – | – | – | – | – | – | –
CC(=O)N[C@@H](CS)C(=O)O [NAC, N-acetylcysteine, reference compound] | – | – | – | – | – | – | 19.40 | – | – | – | – | – | –
O=[N+]([O-])c1cc2cccnc2c2ncccc12 [NP, 5-nitrophenanthroline] | 16.7 ± 0.5 | > 200 | 11.1 ± 0.7 | 18.4 ± 0.1 | 18.1 ± 1.7 | 23.5 ± 1.1 | – | – | – | – | – | – | –
Nc1c(N)c2cccnc2c2ncccc12 [DAP, 5,6-diamino-phenanthroline] | 4.6 ± 0.8 | 12.3 ± 0.8 | 5 ± 0.3 | 15.8 ± 2.8 | 9.2 ± 1 | 37.4 ± 3.2 | – | – | – | – | – | – | –
N.N.[Cl][Pt][Cl] [Cisplatin, reference compound] | – | – | – | – | – | – | – | 12.5 ± 1.5 | 11.2 ± 0.6 | 7.5 ± 1.3 | 3.6 ± 0.5 | 7 ± 1 | 10.8 ± 1.6
